Each structure is given as a SMILES string. Activity calls are given as the source filed them. No rule for the calls is given here.

For two compounds, TD50 and carcinogen call results are on record in PubChem BioAssay AID1745844 (Carcinogenic Potency Database (CPDB), 2022).

This data set relates to rodent lifetime carcinogenesis bioassay, tumor incidence TD50. The data set can be described thus: chronic cancer bioassays in animals – CPDB, compiled studies (AID 1745844). To be noted: in feed.

As usually defined, the TD50 is the 50% point of the dose-response relation for the toxic effect studied. With `O=C1NS(=O)(=O)c2ccccc21`, the TD50 is 610 mg/kg/day (monkey, strain Rhesus [Macaca mulatta], both sexes, site: any site (literature study), lesion: malignant tumor, dosed 1221 weeks, study length 1221 weeks); 43.3 mg/kg/day (monkey, strain Rhesus [Macaca mulatta], both sexes, site: thyroid gland, lesion: lymphoma, dosed 1221 weeks, study length 1221 weeks); 26100 mg/kg/day (inactive) (mouse, strain CD-1 HaM/ICR, females, site: any site (literature study), lesion: several types, types named in the paper, dosed 104 weeks, study length 104 weeks); 881 mg/kg/day (inactive) (mouse, strain CD-1 HaM/ICR, males, site: any site (literature study), lesion: several types, types named in the paper, dosed 104 weeks, study length 104 weeks); 1360 mg/kg/day (inactive) (mouse, strain CD-1 HaM/ICR, males, site: lung, lesion: one or several types, types not named, dosed 104 weeks, study length 104 weeks); 56300 mg/kg/day (inactive) (mouse, strain Swiss albino, females, site: lung, lesion: one or several types, types not named, dosed 76 weeks, study length 76 weeks). Besides, the TD50 runs as follows: (rat, strain ACI, males, site: urinary bladder, lesion: papilloma, dosed 52 weeks, study length 52 weeks) 1110 mg/kg/day; (rat, strain ACI, males, site: urinary bladder, lesion: transitional-cell carcinoma, dosed 52 weeks, study length 52 weeks) 3710 mg/kg/day; (rat, strain Charles River CD (Sprague-Dawley), females, site: liver, lesion: biliary cystadenoma, dosed 142 weeks, study length 142 weeks) 155000 mg/kg/day; (rat, strain Charles River CD (Sprague-Dawley), females, site: liver, lesion: cholangiocarcinoma, dosed 113 weeks, study length 113 weeks) 78200 mg/kg/day (inactive); (rat, strain Charles River CD (Sprague-Dawley), females, site: liver, lesion: neoplastic nodule, dosed 142 weeks, study length 142 weeks) 155000 mg/kg/day; (rat, strain Charles River CD (Sprague-Dawley), females, site: liver, lesion: nodular hyperplasia, dosed 113 weeks, study length 113 weeks) 98400 mg/kg/day (inactive). Further, the TD50 reads like this: (rat, strain Charles River CD (Sprague-Dawley), males, site: liver, lesion: biliary cystadenoma, dosed 142 weeks, study length 142 weeks) 60000 mg/kg/day; (rat, strain Charles River CD (Sprague-Dawley), males, site: parathyroid, lesion: adenoma, dosed 142 weeks, study length 142 weeks) 23200 mg/kg/day; (rat, strain Charles River CD (Sprague-Dawley), males, site: urinary bladder, lesion: transitional-cell carcinoma, dosed 142 weeks, study length 142 weeks) 31100 mg/kg/day; (rat, strain Charles River CD (Sprague-Dawley), males, site: urinary bladder, lesion: transitional-cell papilloma, dosed 142 weeks, study length 142 weeks) 30800 mg/kg/day; (rat, strain Fischer 344, males, site: urinary bladder, lesion: papilloma, dosed 104 weeks, study length 104 weeks) 54100 mg/kg/day; (rat, strain Fischer, males, site: testis, lesion: interstitial-cell tumor, dosed 77 weeks, study length 98 weeks) 613 mg/kg/day. Also, the TD50 (rat, strain Sprague-Dawley, both sexes, site: any site (literature study), lesion: malignant tumor, dosed 130 weeks, study length 130 weeks) is 4100 mg/kg/day (inactive) and the TD50 (rat, strain Wistar, both sexes, site: urinary bladder, lesion: one or several types, types not named, dosed 104 weeks, study length 104 weeks) stood at 125000 mg/kg/day. Also, the carcinogen call by setting is: (mouse, strain CD-1 HaM/ICR, females, site: liver, lesion: one or several types, types not named, dosed 104 weeks, study length 104 weeks) “negative (inactive)”; (mouse, strain CD-1 HaM/ICR, females, site: lung, lesion: one or several types, types not named, dosed 104 weeks, study length 104 weeks) “negative (inactive)”; (mouse, strain CD-1 HaM/ICR, males, site: liver, lesion: hepatoma, dosed 104 weeks, study length 104 weeks) “negative (inactive)”; (mouse, strain Swiss albino, females, site: liver, lesion: hepatoma, dosed 76 weeks, study length 76 weeks) “negative (inactive)”; (mouse, strain Swiss, females, site: urinary bladder, lesion: anaplastic carcinoma, dosed 91 weeks, study length 91 weeks) “negative (inactive)”; (mouse, strain Swiss, males, site: urinary bladder, lesion: transitional-cell carcinoma, dosed 91 weeks, study length 91 weeks) “negative (inactive)”. In addition, the carcinogen call is, setting by setting: (rat, strain Analbuminaemic (Sprague-Dawley derived), males, site: urinary bladder, lesion: carcinoma, dosed 80 weeks, study length 80 weeks) “negative (inactive)”; (rat, strain Charles River CD (Sprague-Dawley), males, site: any site (literature study), lesion: several types, types named in the paper, dosed 104 weeks, study length 104 weeks) “negative (inactive)”; (rat, strain Charles River CD (Sprague-Dawley), males, site: liver, lesion: hepatocellular carcinoma, dosed 113 weeks, study length 113 weeks) “negative (inactive)”; (rat, strain Fischer 344, males, site: forestomach, lesion: papilloma, dosed 72 weeks, study length 73 weeks) “negative (inactive)”; (rat, strain Fischer 344, males, site: urinary bladder, lesion: carcinoma, dosed 72 weeks, study length 73 weeks) “negative (inactive)”; (rat, strain Fischer 344, males, site: urinary bladder, lesion: one or several types, types not named, dosed 52 weeks, study length 52 weeks) “negative (inactive)”. In addition, the carcinogen call was “negative (inactive)” (rat, strain Fischer 344, males, site: urinary bladder, lesion: one or several types, types not named, dosed 72 weeks, study length 72 weeks); “negative (inactive)” (rat, strain Fischer 344, males, site: urinary bladder, lesion: one or several types, types not named, dosed 102 weeks, study length 104 weeks); “negative (inactive)” (rat, strain Fischer 344, males, site: urinary bladder, lesion: one or several types, types not named, dosed 104 weeks, study length 104 weeks); “negative (inactive)” (rat, strain Fischer, males, site: urinary bladder, lesion: several types, types named in the paper, dosed 100 weeks, study length 104 weeks); “negative (inactive)” (rat, strain Sprague-Dawley, both sexes, site: urinary bladder, lesion: one or several types, types not named, dosed 130 weeks, study length 130 weeks); “negative (inactive)” (rat, strain Sprague-Dawley, males, site: urinary bladder, lesion: carcinoma, dosed 80 weeks, study length 80 weeks). Also, the carcinogen call is, setting by setting: (rat, strain Sprague-Dawley, males, site: urinary bladder, lesion: one or several types, types not named, dosed 52 weeks, study length 52 weeks) “negative (inactive)”; (rat, strain Wistar, males, site: urinary bladder, lesion: one or several types, types not named, dosed 52 weeks, study length 52 weeks) “negative (inactive)”.

Regarding `Nc1c(N=Nc2ccc([N+](=O)[O-])cc2)c(S(=O)(=O)O)cc2cc(S(=O)(=O)O)c(N=Nc3ccccc3)c(O)c12`, the carcinogen call runs as follows: (rat, strain Not specified, females, site: any site (literature study), lesion: several types, types named in the paper, dosed 64 weeks, study length 64 weeks) “negative (inactive)”; (rat, strain Not specified, females, site: liver, lesion: one or several types, types not named, dosed 64 weeks, study length 64 weeks) “negative (inactive)”; (rat, strain Not specified, males, site: any site (literature study), lesion: several types, types named in the paper, dosed 64 weeks, study length 64 weeks) “negative (inactive)”; (rat, strain Not specified, males, site: liver, lesion: one or several types, types not named, dosed 64 weeks, study length 64 weeks) “negative (inactive)”.
